Measured values reported in patent publication US10034861B2 (priority 2016, dated 2018).
Like-named read-outs stand apart in the source and are kept apart here.

Legend:
[1] = biological target: PDE1A (Homo sapiens (Human), UniProt P54750); assay: biochemical; format: biochemical
From the text: (§1) Table 1 lists the IC50 value for inhibition of PDE1 by the compounds of the invention. […] PDE1 assays are described in the Experimental Section.

[2] = biological target: PDE1B (Homo sapiens (Human), UniProt Q01064); assay: PDE1 inhibition assay (PDE1B); format: biochemical; conditions: 15 nM tritium labelled cAMP, 1 hr at room temperature, SPA beads
From the text: as §1

[3] = biological target: T1, PDE1C (Homo sapiens (Human), UniProt Q14123); assay: biochemical; conditions: read-out: PDE1C, inhibition at 10 μM
[4] = biological target: T1, PDE1C; assay: biochemical; format: biochemical
From the text: as §1

[5] = 15 nM tritium labelled cAMP, 1 hr at room temperature, SPA beads

Sequence of PDE1A (P54750 whole entry): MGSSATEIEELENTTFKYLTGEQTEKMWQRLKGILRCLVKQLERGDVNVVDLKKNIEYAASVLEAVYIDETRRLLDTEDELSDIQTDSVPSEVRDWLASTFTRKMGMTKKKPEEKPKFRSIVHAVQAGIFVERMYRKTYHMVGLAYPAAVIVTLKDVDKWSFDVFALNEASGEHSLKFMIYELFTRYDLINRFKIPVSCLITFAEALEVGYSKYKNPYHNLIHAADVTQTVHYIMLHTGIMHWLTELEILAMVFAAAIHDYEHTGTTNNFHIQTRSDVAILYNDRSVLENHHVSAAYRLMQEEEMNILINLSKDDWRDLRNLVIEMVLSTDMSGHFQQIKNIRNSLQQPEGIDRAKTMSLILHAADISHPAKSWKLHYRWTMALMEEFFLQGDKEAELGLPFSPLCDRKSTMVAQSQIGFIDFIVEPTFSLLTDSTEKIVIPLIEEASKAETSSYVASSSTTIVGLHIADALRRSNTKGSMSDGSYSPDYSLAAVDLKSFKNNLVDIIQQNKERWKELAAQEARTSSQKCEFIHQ
T1 sequence (Q14123 whole entry): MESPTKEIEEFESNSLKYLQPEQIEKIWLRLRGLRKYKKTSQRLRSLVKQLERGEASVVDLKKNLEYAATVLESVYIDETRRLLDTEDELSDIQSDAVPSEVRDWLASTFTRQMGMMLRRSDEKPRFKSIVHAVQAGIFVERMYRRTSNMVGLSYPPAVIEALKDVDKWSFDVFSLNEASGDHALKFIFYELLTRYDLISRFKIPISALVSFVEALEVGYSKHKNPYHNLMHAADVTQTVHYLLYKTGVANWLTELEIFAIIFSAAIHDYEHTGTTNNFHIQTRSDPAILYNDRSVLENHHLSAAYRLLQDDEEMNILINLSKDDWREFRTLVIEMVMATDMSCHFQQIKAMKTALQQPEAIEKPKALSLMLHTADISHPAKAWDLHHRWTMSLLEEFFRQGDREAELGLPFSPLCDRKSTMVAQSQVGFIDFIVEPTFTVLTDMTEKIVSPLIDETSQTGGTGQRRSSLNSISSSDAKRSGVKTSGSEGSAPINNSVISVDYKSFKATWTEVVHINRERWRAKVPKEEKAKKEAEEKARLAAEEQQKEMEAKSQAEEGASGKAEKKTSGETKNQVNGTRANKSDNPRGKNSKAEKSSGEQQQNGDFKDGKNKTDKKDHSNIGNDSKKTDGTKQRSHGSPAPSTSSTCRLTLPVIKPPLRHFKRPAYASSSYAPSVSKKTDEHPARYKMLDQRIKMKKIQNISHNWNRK
Sequence of PDE1B (Q01064 whole entry): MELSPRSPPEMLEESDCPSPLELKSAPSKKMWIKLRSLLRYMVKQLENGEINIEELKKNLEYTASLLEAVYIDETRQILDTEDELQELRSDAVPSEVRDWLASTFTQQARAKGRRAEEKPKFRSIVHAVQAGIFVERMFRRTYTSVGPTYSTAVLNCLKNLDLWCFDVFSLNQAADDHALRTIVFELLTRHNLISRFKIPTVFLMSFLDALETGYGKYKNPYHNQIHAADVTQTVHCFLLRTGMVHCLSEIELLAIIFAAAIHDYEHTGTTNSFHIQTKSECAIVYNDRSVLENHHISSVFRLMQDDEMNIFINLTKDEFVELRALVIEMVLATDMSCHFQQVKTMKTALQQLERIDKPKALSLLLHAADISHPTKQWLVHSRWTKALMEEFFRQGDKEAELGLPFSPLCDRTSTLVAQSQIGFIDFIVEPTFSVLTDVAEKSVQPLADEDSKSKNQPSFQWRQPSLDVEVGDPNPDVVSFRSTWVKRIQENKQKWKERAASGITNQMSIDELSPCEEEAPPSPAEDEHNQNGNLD

| SMILES | IC50 [1, 5] [nM] | IC50 ([2]; PDE1B, IC50 (nM)) [nM] | inhibition at 10 µM [3] [%] | IC50 [1] [nM] | IC50 [4] [nM] | IC50 [4, 5] [nM] | IC50 ([2]; read-out: PDE1B, IC50) [nM] |
| --- | --- | --- | --- | --- | --- | --- | --- |
| CCOc1ncccc1-c1cc(NC(C)c2cnn(C)c2)c2c(cnn2C)n1 (racemic) [Example 15, 5-(2-ethoxypyridin-3-yl)-1-methyl-N-(1-(1-methyl-1H-pyrazol-4-yl)ethyl)-1H-pyrazolo[4,3-b]pyridin-7-amine] | 820 | 200 | 36 | – | – | – | – |
| [2H]C([2H])([2H])C([2H])([2H])Oc1ncccc1-c1cc(NCc2cccnc2OC)c2c(n1)c(C)nn2C(C)C [Example 181, 5-(2-(ethoxy-d5)pyridin-3-yl)-1-isopropyl-N-((2-methoxypyridin-3-yl)methyl)-3-methyl-1H-pyrazolo[4,3-b]pyridin-7-amine] | – | 1.6 | – | 31 | 84 | – | – |
| CCOc1ncccc1-c1cc(NCc2cncc(OC)n2)c2c(n1)c(C)nn2C(C)C [Example 82, 5-(2-ethoxy-3-pyridyl)-1-isopropyl-N-[(6-methoxypyrazin-2-yl)methyl]-3-methyl-pyrazolo[4,3-b]pyridin-7-amine] | 16 | – | – | – | – | 35 | 1 |
| CCN(C)c1ncccc1-c1cc(NCc2ccc(OC)cc2)c2c(n1)c(C)nn2C(C)C [Example 198, 5-(2-(ethyl(methyl)amino)pyridin-3-yl)-1-isopropyl-N-(4-methoxybenzyl)-3-methyl-1H-pyrazolo[4,3-b]pyridin-7-amine] | 1100 | – | – | – | – | 1000 | 240 |
| CCCOc1ncccc1-c1cc(NCc2nnn(C)n2)c2c(n1)c(C)nn2C(C)C [Example 93, 1-isopropyl-3-methyl-N-[(2-methyltetrazol-5-yl)methyl]-5-(2-propoxy-3-pyridyl)pyrazolo[4,3-b]pyridin-7-amine] | 4.3 | – | – | – | – | 17 | 0.96 |
| CCOc1ncccc1-c1cc(NCc2ccncc2)c2c(cnn2C(C)C)n1 [Example 22, 5-(2-ethoxy-3-pyridyl)-1-isopropyl-N-(4-pyridylmethyl)pyrazolo[4,3-b]pyridin-7-amine] | 250 | – | – | – | – | 430 | 50 |
